These results are taken from PMC8692993, “PPARα and PPARγ activation is associated with pleural mesothelioma invasion but therapeutic inhibition is ineffective” (iScience, 2021).

By IC50 is commonly meant the concentration that gives 50% inhibition.

Each structure is given as a SMILES string. Read-outs that look alike come from different tables or passages of the source. Where only a bound is given, the exact number is not on record here.

In one series the target is T1, PPARδ (Homo sapiens, UniProt Q03181).
T1 construct: expressed in transfected cells; host or cells: HG5LN (HeLa-derived, GAL4RE-luciferase)
T1 sequence (Q03181 211-439 limits assumed): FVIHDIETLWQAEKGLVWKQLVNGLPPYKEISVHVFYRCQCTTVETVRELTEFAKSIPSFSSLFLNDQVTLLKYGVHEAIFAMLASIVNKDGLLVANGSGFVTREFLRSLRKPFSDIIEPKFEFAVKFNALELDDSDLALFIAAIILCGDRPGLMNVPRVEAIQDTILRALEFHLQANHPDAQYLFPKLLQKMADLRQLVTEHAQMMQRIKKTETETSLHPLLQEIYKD
As to the kind of experiment: HG5LN reporter cell assay, PPARδ. Format: cell-based. As to conditions: HG5LN PPARδ reporter cells.

Series [1] relates to HAP1, HAP1 PPARA KO, and HAP1 PPARG KO cell lines. Briefly: Scratch wound migration assay, HAP1 lines. Format: cell-based, human. As to conditions: 1 and 10 μM. The protocol: (§1) Cells were harvested and seeded in Incucyte®ImageLock 96-well plates (Essen BioScience) at a density of 10 x 10^4 cells/mL overnight. A scratch wound was performed on the confluent cells with the 96-pin IncuCyte WoundMaker Tool (Essen BioScience). For migration assays, cells were washed with PBS once before adding 100 μL media with GW6471 at indicated concentrations. For matrigel invasion assays, cells were washed with PBS once before adding 50 μL of matrigel basement membrane matrix (FAL356231; Corning, NY, USA) at 8 mg/mL; lastly 100 μL media with GW6471 at indicated concentrations were added on top of the matrigel. Wounded cells were incubated in the IncuCyte ZOOM® at 37°C with 5% CO2. Data were analysed using the Incucyte® Scratch Wound Cell Migration Software Module and calculating the Relative Wound Density (%) (RWD) for both migration and invasion assays.

Series [2] has as its target T2, PPARγ (Homo sapiens, UniProt P37231).
T2 sequence (P37231 238-503 limits assumed): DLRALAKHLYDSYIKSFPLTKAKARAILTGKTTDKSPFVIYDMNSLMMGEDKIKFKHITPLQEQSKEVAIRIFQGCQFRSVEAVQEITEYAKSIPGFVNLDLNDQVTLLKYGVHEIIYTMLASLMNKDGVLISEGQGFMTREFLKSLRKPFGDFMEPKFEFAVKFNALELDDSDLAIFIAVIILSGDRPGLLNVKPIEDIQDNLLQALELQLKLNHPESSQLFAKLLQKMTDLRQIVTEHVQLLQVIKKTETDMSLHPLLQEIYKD
Further details: expressed in transfected cells; host or cells: HG5LN (HeLa-derived, GAL4RE-luciferase); method as in Goldstein et al., 2017. As to conditions: an IC50 value was not reported, ref Goldstein et al., 2017, read-out: Functionality, Lit. IC50; cited from earlier work.

The nature of series [3]: Protein binding by rapid equilibrium dialysis, mouse plasma. Format: in vitro ADME. As to conditions: corrected from 10% diluted plasma, mean ± SD, n=3. The protocol:
Protein binding was determined via rapid equilibrium dialysis (RED) with incorporation of a pre-saturation step ([Charman et al., 2020]). The pre-incubation process involved RED system being exposed to fresh aqueous solutions of GW6471 (400 nM) for three periods (including one overnight). For the protein binding determination, GW6471 was spiked into the diluted mouse plasma (10% (v/v); in PBS) or DMEM/F-12 media containing 5% dextran-coated charcoal-stripped FCS (at 2000 nM) and dialysed against protein-free PBS (for plasma) or base media (DMEM/F-12) containing GW6471 at 40 nM for 24 h at 37°C under ambient atmosphere on a plate shaker. Concentrations of GW6471 in dialysate and donor samples collected at the end of the dialysis period were determined via LC–MS.
Compound binding was assessed on the basis of the measured concentrations in dialysate and donor samples at the end of the dialysis period.
Based on the post-dialysis measured concentrations in donor (Ctotal_post_dialysis) and dialysate (Cunbound) for each RED unit, the unbound fraction of compound in assay matrix (fu_diluted) was calculated according to Equation 1 below:(Equation 1) fu=Cunbound/Ctotal_post−dialysis
For media, the value for fu calculated according to Equation 1 above was used without further correction. […]
(In general: Equilibrium dialysis compares concentrations on both sides of a semipermeable membrane.)

For a further series, the target named is T3, PPARα (Homo sapiens, UniProt Q07869).
T3 sequence (Q07869 239-466 limits assumed): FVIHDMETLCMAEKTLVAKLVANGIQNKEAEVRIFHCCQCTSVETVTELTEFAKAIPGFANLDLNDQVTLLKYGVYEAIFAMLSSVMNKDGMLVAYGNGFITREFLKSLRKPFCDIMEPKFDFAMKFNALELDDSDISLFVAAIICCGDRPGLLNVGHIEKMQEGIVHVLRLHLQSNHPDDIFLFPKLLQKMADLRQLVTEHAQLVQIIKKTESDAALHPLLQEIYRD
As to the kind of experiment: LanthaScreen TR-FRET binding assay, PPARα. As to conditions: 2 h incubation, mean of 3 replicates ± SEM. The protocol:
(§2) The LanthaScreen™ TR-FRET binding assay was performed following the manufacturer's guidelines (PV4894, Invitrogen) as follows, 20 mM stock solution of the ligand or control in DMSO were serially diluted using 100% DMSO to produce a range of concentrations from 100 μM to 1 pM. The test compound solutions were mixed with the reaction buffer in a 1 (ligand) in 10 (reaction buffer) dilution for a final 2X ligand concentration. This was mixed with the reaction components (glutathione S-transferase (GST)-PPPARγLBD (0.5 nM)/, terbium (Tb)-labelled anti-GST antibody (5 nM) and Fluormone pan-PPAR green (5 nM for PPARγ; 20 nM for PPARα) at room temperature in a ratio of 8 μLl 2X ligand solution: 4 μLl of 4XFluormone: and 4 μLl 4X GST-PPPARγLBD/terbium (Tb)-labelled anti-GST antibody to produce a final reaction mixture volume of 16 μL. The concentration of DMSO in the final reaction mixture was 5%. The reaction mixture was kept at room temperature for 2 h prior to recording the TR-FRET emission spectra using a CLARIOstar Plus microplate reader (BMG Labtech). […] Results are expressed as the ratio of fluorescence intensity at 520 nm (Fluormone emission) and 490 nm (Tb emission). […] For each compound three serial dilutions were prepared and measured separately. The IC50 and SEM values were determined using a sigmoidal dose-response equation with varying slope using GraphPad Prism.
(Time-resolved FRET reads energy transfer from a long-lived donor to a nearby acceptor.)

Series [4] concerns the target T2, PPARγ. Briefly: LanthaScreen TR-FRET binding assay, PPARγ. As to conditions: 2 h incubation, mean of 3 replicates ± SEM. The protocol: as §2
Series [5] relates to VGE62 human mesothelioma cell line. As to the kind of experiment: Matrigel invasion scratch assay. Format: cell-based. As to conditions: VGE62, 0.5, 1, 10 μM, concentration-dependent, p <0.0001. The protocol: as §1

With `CCC(=O)NC[C@H](Cc1ccc(OCCc2nc(-c3ccccc3)oc2C)cc1)N/C(C)=C\C(=O)c1ccc(C(F)(F)F)cc1` [GW6471], the “Effect on PPARδ in reporter cell assay” value on PPARδ was “no effect”. For the same molecule, the “Effect on migration compared between PPARA KO, PPARG KO and wild-type cells” value in series [1] was “not significantly different”. Further, the In vitro migration entry in series [1] (HAP1 lines) was “concentration-dependent effect on in vitro migration”. Besides, the IC50 on PPARγ [2] is less than 1000 nM; at PPARα, 95.3 ± 42 nM; at PPARγ [4], 39.4 ± 18.2 nM. In series [3], the “Fraction unbound (fu)” value is reported as 0.00059 ± 0.00005. Besides, the “Invasion into matrigel (relative wound density)” value in series [5] is “significantly inhibited invasion”.
